Values of other authors as cited in US20090196919A1, “OXCARBAZEPINE DOSAGE FORMS” (priority 2004, published 2009).

solubility in water: poor
SMILES: NC(=O)N1c2ccccc2CC(=O)c2ccccc21 [Oxcarbazepine, 10,11-dihydro-10-oxo-5H-dibenz[b,f]azepine-5-carboxamide]
